In general, pIC50 refers to the IC50 on a negative log10 scale, so that one unit is a factor of ten. Read a low pIC50 as a high IC50.

This passage reports Kd and IC50 results from US8362000B2, “Azetidinyl diamides as monoacylglycerol lipase inhibitors” (Janssen Pharmaceutica NV, priority 2009, dated 2013).

One test has as its target T1, mutant MGL (Homo sapiens, UniProt Q99685, L169S/L176S).
T1 sequence (Q99685 1-303 L169S/L176S): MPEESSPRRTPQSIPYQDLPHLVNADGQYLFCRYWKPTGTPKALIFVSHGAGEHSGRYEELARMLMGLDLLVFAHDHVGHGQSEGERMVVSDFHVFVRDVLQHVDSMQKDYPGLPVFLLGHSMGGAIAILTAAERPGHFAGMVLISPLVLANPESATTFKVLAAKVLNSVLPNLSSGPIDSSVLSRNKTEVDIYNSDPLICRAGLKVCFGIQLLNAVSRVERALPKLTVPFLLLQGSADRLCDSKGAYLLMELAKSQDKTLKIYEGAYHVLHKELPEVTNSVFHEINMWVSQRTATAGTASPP
The test can be described thus: MGL ThermoFluor assay - mutant. Conditions: for Kd: read-out: MGL mutant ThermoFluor qKd (μM) (using qNMR conc.). It is filed as binding.

Test [1] addresses T2, purified wild type MGL (wt-MGLL 6H-11-313) (Homo sapiens, UniProt Q99685).
T2 sequence (Q99685 1-303): T1 sequence (Q99685 1-303 L169S/L176S) with S169L, S176L

The mark [2] stands for this setting: ThermoFluor concentration-response, read-out: MGL mutant ThermoFluor Kd.
Setting [3] is: ThermoFluor, compound concentration measured by qNMR, read-out: MGL mutant ThermoFluor qKd (using qNMR conc.).
Setting [4] is: ThermoFluor thermal stability binding assay, read-out: MGL mutant ThermoFluor Kd.
[5] abbreviates: ThermoFluor, compound concentration measured by qNMR.
Setting [6] is: compound concentration measured by qNMR, read-out: MGL mutant ThermoFluor qKd (using qNMR conc.).

Where a chain is given by its changes, count along the chain named. pIC50, pKd: −log10 of the molar value. Like-named read-outs stand apart in the source and are kept apart here.

For `Cc1c(C(=O)N2CC(N3CCN(C(=O)c4cscn4)CC3)C2)oc2ccc(F)cc12` [Cpd 862], on mutant MGL (setting [2]), the pKd was less than 4.66. Moreover, in test [1], the pIC50 was 5.02.
Consider `Cc1nc2cc(C(=O)N3CC(N4CCN(C(=O)c5nccs5)CC4)C3)ccc2s1` [Cpd 783], for which the pKd at mutant MGL (setting [3]) was 6.14. The pIC50 in test [1] is 5.96.
The like results for `CC1(C)c2ccccc2-c2ccc(C(=O)N3CC(N4CCN(C(=O)c5nccs5)CC4)C3)cc21` [Cpd 952] were, in that order, 7.72 and 7.92.
With `O=C(c1ccc2c(c1)CCN2C(=O)c1ccccc1)N1CC(N2CCN(C(=O)c3nccs3)CC2)C1` [Cpd 724, 1-(Phenylcarbonyl)-5-({3-[4-(1,3-thiazol-2-ylcarbonyl)piperazin-1-yl]azetidin-1-yl}carbonyl)-2,3-dihydro-1H-indole], the pKd on mutant MGL (setting [2]) was 7.30. This molecule showed a pIC50 in test [1] of 6.69.
On to `CC(=O)NCCOc1ccc(C(=O)N2CC(N3CCN(C(=O)c4nccs4)CC3)C2)cc1` [Cpd 836], for which the pKd on mutant MGL (setting [3]) was 5.65. This molecule showed a pIC50 in test [1] of 5.32.
`O=C(c1nccs1)N1CCN(C2CN(C(=O)c3cccc4oc(-c5cccc(Cl)c5)nc34)C2)CC1` [Cpd 1191]: the pKd on mutant MGL (setting [4]) is 7.96. This molecule also gave a pIC50 in test [1] of 6.98.
As for `CC1CN(C(=O)c2nccs2)CCN1C1CN(C(=O)c2ccc(Cc3ccccc3)cc2)C1` (stereo not shown) [Cpd 47, 1-{1-[(4-Benzylphenyl)carbonyl]azetidin-3-yl}-2-methyl-4-(1,3-thiazol-2-ylcarbonyl)piperazine], the pKd on mutant MGL (setting [2]) is 7.04. Moreover, the pIC50 in test [1] was 6.89.
As for `COc1cc(-n2ccc3cc(C(=O)N4CC(N5CCN(C(=O)c6ccccc6)CC5)C4)ccc32)ccc1C#N` [Cpd 633], the pKd on mutant MGL (setting [4]) is 6.80. The pIC50 in test [1] is 7.21.
`O=C(c1ccccc1)N1CCN(C2CN(C(=O)c3ccc4nc(-c5ccccc5)sc4c3)C2)CC1` [Cpd 592, 2-Phenyl-6-({3-[4-(phenylcarbonyl)piperazin-1-yl]azetidin-1-yl}carbonyl)-1,3-benzothiazole]: the pKd on mutant MGL (setting [2]) is 6.30. In test [1], this molecule had a pIC50 of 6.60.
The like results for `O=C(c1ccc(-n2cnc3ccccc32)cc1)N1CCN(C2CN(C(=O)c3ccccc3)C2)CC1` [Cpd 610] were, in that order, 5.89 and 4.99.
Consider `Cn1c2ccccc2c2cc(C(=O)N3CC(N4CCN(C(=O)c5nccs5)CC4)C3)ccc21` [Cpd 750], for which the pKd at mutant MGL (setting [2]) was 7.60. The same molecule gave a pIC50 in test [1] of 6.40.
As for `O=C(c1ccc2nn(-c3cccc(OC(F)(F)F)c3)cc2c1)N1CC(N2CCN(C(=O)c3cscn3)CC2)C1` [Cpd 1422], the Kd at mutant MGL (setting [5]) was determined as 0.195 µM. The molecule also had a pIC50 in test [1] of 7.85.
As to `O=C(c1ccc(-n2cnc3ccccc32)cc1)N1CCN(C2CN(C(=O)c3cscn3)C2)CC1` [Cpd 1305], the pKd at mutant MGL (setting [2]) was 6.08. Besides, the pIC50 in test [1] is 5.18.
For `Cc1c(C(=O)N2CC(N3CCN(C(=O)c4nccs4)CC3)C2)c2ccccc2n1C` [Cpd 796], in that order: 7.00 and 5.82.
Consider `Cc1c(C(=O)N2CC(N3CCN(C(=O)c4ccc[nH]4)CC3)C2)n(C)c2ccc(Cl)cc12` [Cpd 733], for which the pKd at mutant MGL (setting [3]) is 6.34. This molecule gave a pIC50 in test [1] of 6.62.
For `O=C(c1cc2ccc(C(F)(F)F)nc2o1)N1CCN(C2CN(C(=O)c3nccs3)C2)CC1` [Cpd 860], the pKd at mutant MGL (setting [2]) was 5.75. Moreover, the pIC50 in test [1] is 5.05.
In the case of `O=C(c1nccs1)N1CCN(C2CN(C(=O)c3ccc4c(ccn4-c4ccc(F)cc4)c3F)C2)CC1` [Cpd 1348, 4-Fluoro-1-(4-fluorophenyl)-5-({3-[4-(1,3-thiazol-2-ylcarbonyl)piperazin-1-yl]azetidin-1-yl}carbonyl)-1H-indole], the pKd on mutant MGL (setting [6]) was 8.70. In addition, the pIC50 in test [1] was more than 8.30.
For `O=C(c1ccc(Oc2ncc(C(F)(F)F)cc2Cl)cc1)N1CC(N2CCN(C(=O)C(F)(F)F)CC2)C1` [Cpd 802], in that order: 5.78 and 5.76.
Regarding `O=C(c1ccc(-c2cccc(C(F)(F)F)c2)cc1)N1CC(N2CCN(C(=O)c3ccc(Br)o3)CC2)C1` [Cpd 1335], on mutant MGL (setting [5]), the Kd was determined as 0.011 µM. The molecule further showed a pIC50 in test [1] of more than 8.30.
As for `COc1cccc2c(C)c(C(=O)N3CC(N4CCN(C(=O)c5cscn5)CC4)C3)[nH]c12` [Cpd 840], the pKd at mutant MGL (setting [2]) was 5.70. In test [1], this molecule had a pIC50 of 5.29.
The like results for `O=C(c1nccs1)N1CCN(C2CN(C(=O)c3nn(-c4ccc(Cl)cc4Cl)c4c3CCC/C4=C\c3ccc(Cl)cc3)C2)CC1` [Cpd 1018] were, in that order, 6.68 and 7.00.
As to `O=C(c1ccc2c(c1)[S+]([O-])c1ccccc1O2)N1CC(N2CCN(C(=O)c3nccs3)CC2)C1` (stereo not shown) [Cpd 807], at mutant MGL (setting [6]), the pKd was 5.44. In test [1], the pIC50 was 5.68.
In the case of `O=C(c1cscn1)N1CCN(C2CN(C(=O)c3sc4cc(C(F)(F)F)ccc4c3Cl)C2)C(C(F)(F)F)C1` (stereo not shown) [Cpd 801], on mutant MGL (setting [4]), the pKd is 4.28. In test [1], this molecule gave a pIC50 of 5.77.
With `O=C(c1ccc2c(c1)CCN2C(=O)C1CC1)N1CC(N2CCN(C(=O)c3nccs3)CC2)C1` [Cpd 773], the pKd on mutant MGL (setting [2]) was 7.40. Moreover, the pIC50 in test [1] is 6.07.
The like results for `O=C(c1ccc2[nH]c(-c3ccccc3)nc2c1)N1CC(N2CCN(C(=O)c3cscn3)CC2)C1` [Cpd 1299] were, in that order, 5.96 and 5.41.
`Cc1nc2cc(C(=O)N3CC(N4CCN(C(=O)c5nccs5)CC4)C3)ccc2n1CCC(F)(F)F` [Cpd 777]: the pKd at mutant MGL (setting [6]) is 7.32. In addition, the pIC50 in test [1] is 6.04.
As to `Cc1c(C(=O)N2CCN(C3CN(C(=O)c4cncs4)C3)CC2)sc2cc(C(F)(F)F)ccc12` [Cpd 726], the pKd at mutant MGL (setting [2]) is 6.90. Further, the pIC50 in test [1] is 6.66.
Regarding `COc1c(C(=O)N2CC(N3CCN(C(=O)c4nccs4)CC3)C2)sc2cc(C(F)(F)F)ccc12` [Cpd 649, 1-(1-{[3-Methoxy-6-(trifluoromethyl)-1-benzothiophen-2-yl]carbonyl}azetidin-3-yl)-4-(1,3-thiazol-2-ylcarbonyl)piperazine], the pKd at mutant MGL (setting [6]) is 9.00. Moreover, the pIC50 in test [1] is 8.22.
Regarding `O=C(c1ccc2nc(C(F)(F)F)sc2c1)N1CC(N2CCN(C(=O)c3nccs3)CC2)C1` [Cpd 718], the pKd on mutant MGL (setting [4]) was 7.14. In test [1], this molecule showed a pIC50 of 6.83.
For `O=C(c1ccc(OCc2cccc(Cl)c2)cc1)N1CC(N2CCN(C(=O)c3nccs3)CC2)C1` [Cpd 957], in that order: 8.10 and more than 8.30.
The like results for `O=C(c1ccccc1)N1CCc2cccc(C(=O)N3CC(N4CCN(C(=O)c5nccs5)CC4)C3)c2C1` [Cpd 1437] were, in that order, 4.48 and less than 4.78.
For `O=C(c1ccc2c(cnn2-c2cccc(C(F)(F)F)c2)c1)N1CC(N2CCN(C(=O)c3nccs3)CC2)C1` [Cpd 1419], in that order: 8.40 and more than 8.30.
For `O=C(c1nccs1)N1CCN(C2CN(C(=O)c3cccc4nc(-c5ccco5)[nH]c34)C2)CC1` [Cpd 1252], at mutant MGL (setting [4]), the pKd was 6.41. The same molecule had a pIC50 in test [1] of 6.15.
On to `O=C(c1cscn1)N1CCN(C2CN(C(=O)c3cc4ccc(C(F)(F)F)nc4[nH]3)C2)CC1` [Cpd 865], for which the pKd on mutant MGL (setting [3]) was 5.60. Also, the pIC50 in test [1] is 4.99.
Turning to `O=C(c1nc2cc(-c3ccc(F)cc3)ccc2[nH]1)N1CC(N2CCN(C(=O)c3nccs3)CC2)C1` [Cpd 1294, 5-(4-Fluorophenyl)-2-({3-[4-(1,3-thiazol-2-ylcarbon-yl)piperazin-1-yl]azetidin-1-yl}carbonyl)-1H-benzimidazole], the Kd on mutant MGL (setting [5]) amounted to 4.41 µM. The molecule further showed a pIC50 in test [1] of 5.49.
